Drawing on patent publication US20050113396A1, “2-Guanidino-4-heterocyclylquinazolines” (priority 2001, published 2005), this text covers melting point for three compounds.

Structures can show the parent of a compound that is named as a salt.

By melting point is commonly meant the temperature, or range, at which the solid turns liquid.

In the case of `COc1ncc(-c2nc(N=C(N)N)nc3ccc(Cl)cc23)c(OC)n1` (as salt: HCl) [Example 235], the melting point fell in the range of 270 to 275 °C.

For the compound `NC(N)=Nc1nc(-n2c(Br)ccc2Br)c2cc(Cl)ccc2n1` (as salt: HCl) [Example 196], the melting point came to 302 °C.

`Cc1noc(C)c1-c1nc(N=C(N)N)nc2ccc(Cl)cc12` (as salt: HCl) [Example 215] registered a melting point of 317 to 320 °C.
